Source: publication PMC11123841, “Discovery and Synthesis of Hydroxy-L-Proline Blockers of the Neutral Amino Acid Transporters SLC1A4 (ASCT1) and SLC1A5 (ASCT2)” (Molecules, 2024)
Entries after “also recorded” stand apart in the source; their conditions may differ.

How the values were obtained:
Format in all cases: cell-based
[1] = target: T1, SLC1A5 (Mus musculus, UniProt P51912); assay: [3H]L-alanine heteroexchange (trans-stimulation) in preloaded oocytes; settings: 3 µM BPOHP, 1 mM L-alanine
T1 construct: expressed in transfected cells; host or cells: Xenopus laevis oocytes (cRNA injection)
T1 sequence (P51912 1-553): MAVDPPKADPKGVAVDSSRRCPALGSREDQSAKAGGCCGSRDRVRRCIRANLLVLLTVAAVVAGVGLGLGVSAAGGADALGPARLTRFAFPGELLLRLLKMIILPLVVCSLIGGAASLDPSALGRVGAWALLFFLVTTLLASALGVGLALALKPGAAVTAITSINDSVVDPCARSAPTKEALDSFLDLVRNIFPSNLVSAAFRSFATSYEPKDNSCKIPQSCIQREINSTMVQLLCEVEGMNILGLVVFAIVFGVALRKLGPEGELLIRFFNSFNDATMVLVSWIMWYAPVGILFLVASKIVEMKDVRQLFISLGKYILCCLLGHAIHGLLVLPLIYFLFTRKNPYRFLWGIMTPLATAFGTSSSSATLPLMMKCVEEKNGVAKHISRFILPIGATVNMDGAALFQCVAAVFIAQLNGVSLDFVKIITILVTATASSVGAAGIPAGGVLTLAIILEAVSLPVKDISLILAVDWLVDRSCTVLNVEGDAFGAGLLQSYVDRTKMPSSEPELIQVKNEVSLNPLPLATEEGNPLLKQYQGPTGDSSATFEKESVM
Description: (§1) Uptake was halted by washing 3 times with 4 °C ND96 buffer. Oocytes were then lysed in 0.1% Triton X-100, and radioactivity was counted via liquid scintillation. Dose response curves were generated by fitting fractional inhibition (I) to the expression I = Imax × [inhibitor]/([inhibitor] + IC50).

[2] = target: T2, SLC38A1 (ATA1) (Homo sapiens, UniProt Q9H2H9); assay: TEVC electrogenic coupled currents in oocytes; settings: 100 µM L-alanine, 3 µM BPOHP
T2 construct: expressed in transfected cells; host or cells: Xenopus laevis oocytes (cRNA injection)
T2 sequence (Q9H2H9 1-487): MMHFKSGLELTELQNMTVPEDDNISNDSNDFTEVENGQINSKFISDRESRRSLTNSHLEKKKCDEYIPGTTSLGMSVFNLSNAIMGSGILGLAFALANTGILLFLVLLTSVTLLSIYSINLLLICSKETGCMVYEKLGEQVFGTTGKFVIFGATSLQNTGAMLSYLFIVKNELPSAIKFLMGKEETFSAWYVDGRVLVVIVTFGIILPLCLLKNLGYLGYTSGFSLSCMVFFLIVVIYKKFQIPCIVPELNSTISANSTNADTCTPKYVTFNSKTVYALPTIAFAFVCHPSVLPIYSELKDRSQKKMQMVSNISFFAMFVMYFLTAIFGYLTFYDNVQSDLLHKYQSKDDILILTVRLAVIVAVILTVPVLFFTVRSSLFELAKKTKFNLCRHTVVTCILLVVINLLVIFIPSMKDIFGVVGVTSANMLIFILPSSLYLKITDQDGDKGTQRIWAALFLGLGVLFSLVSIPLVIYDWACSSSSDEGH
Description: (§2) BPOHP activity was evaluated against the glutamate transporters paralogs within the SLC1A gene family (SLC1A 1–3) as well as at neutral amino acid transporters that share common ligand substrates with the SLC1 family including SLC38A1,2, and 4 (ATA1, ATA2, ATA3) and heteromeric transporters SLC7A10+SLC3A2 (asc-1/4f2). […] Finally, radiolabeled [^3H]D-serine uptake was used to assess the electroneutral SLC7A10+SLC3A2 transporter, in which 10 µM BPOHP had no effect (Figure S3).
as §1
(§3) Two-electrode voltage clamp (TEVC) transporter currents were recorded with a GeneClamp 500 amplifier and Digidata 1320A analog–digital interface (Molecular Devices, San Jose, CA, USA). […] Data were acquired with Axograph (v1.7.6) and LabChart (v7) and analyzed with Kaleidagraph software (v4.1) (Synergy, Reading, PA, USA). Uncoupled anion currents associated with the transport of substrate and block of SLC1A4 or SLC1A5 mediated leak conductance were recorded in the presence of Ringer with 50% substitution of NaCl by NaSCN to amplify the non-transported anion conductance. […]

[3] = target: T3, SLC38A4 (ATA3) (Homo sapiens, UniProt Q969I6); assay: TEVC electrogenic coupled currents in oocytes; settings: 100 µM L-alanine, 3 µM BPOHP
T3 construct: expressed in transfected cells; host or cells: Xenopus laevis oocytes (cRNA injection)
T3 sequence (Q969I6 1-547): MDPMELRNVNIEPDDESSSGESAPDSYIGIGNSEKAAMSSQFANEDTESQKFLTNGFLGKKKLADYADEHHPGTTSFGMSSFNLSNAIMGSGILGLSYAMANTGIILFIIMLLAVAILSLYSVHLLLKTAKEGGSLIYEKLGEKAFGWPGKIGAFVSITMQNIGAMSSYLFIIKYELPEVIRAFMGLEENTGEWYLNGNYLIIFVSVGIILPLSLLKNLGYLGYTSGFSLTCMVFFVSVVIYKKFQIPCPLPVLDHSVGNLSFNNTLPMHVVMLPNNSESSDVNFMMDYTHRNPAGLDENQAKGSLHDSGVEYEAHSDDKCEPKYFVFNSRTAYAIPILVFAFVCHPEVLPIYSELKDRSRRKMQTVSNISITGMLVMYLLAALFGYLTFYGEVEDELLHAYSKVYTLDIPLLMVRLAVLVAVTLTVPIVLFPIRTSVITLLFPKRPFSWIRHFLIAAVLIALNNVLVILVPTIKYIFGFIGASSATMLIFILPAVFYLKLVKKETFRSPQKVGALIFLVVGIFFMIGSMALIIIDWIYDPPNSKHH
Description: as §2, §1, §3

**Q.** Which “[3H]L-alanine exchange” value [1] does the source give for O=C(O)[C@H]1NC[C@@H](OCc2ccc(-c3ccccc3)cc2)[C@@H]1O [14e] here?
**A.** No exchange was detected

**Q.** What about the “block of L-alanine current” value [2] of the same compound?
**A.** no effect; also recorded: no discernible block; also recorded: no inhibition was detected

**Q.** What about the “block of L-alanine current” value [3] of the same compound?
**A.** no effect; also recorded: no discernible block; also recorded: no inhibition was detected
